According to ChEMBL document CHEMBL1135887, “Substituted pentacyclic carbazolones as novel muscarinic allosteric agents: synthesis and structure-affinity and cooperativity relationships” (J Med Chem, 2002):

Tests used:
[1] = target: T1, Muscarinic acetylcholine receptor M1 (Homo sapiens) (UniProt P11229); assay: Logarithm of affinity (log 1/M) at the (N-methyl Scopolamine) NMS-liganded muscarinic acetylcholine receptor M1 by using semiquantitative equilibrium and off-rate assay
T1 sequence (whole entry): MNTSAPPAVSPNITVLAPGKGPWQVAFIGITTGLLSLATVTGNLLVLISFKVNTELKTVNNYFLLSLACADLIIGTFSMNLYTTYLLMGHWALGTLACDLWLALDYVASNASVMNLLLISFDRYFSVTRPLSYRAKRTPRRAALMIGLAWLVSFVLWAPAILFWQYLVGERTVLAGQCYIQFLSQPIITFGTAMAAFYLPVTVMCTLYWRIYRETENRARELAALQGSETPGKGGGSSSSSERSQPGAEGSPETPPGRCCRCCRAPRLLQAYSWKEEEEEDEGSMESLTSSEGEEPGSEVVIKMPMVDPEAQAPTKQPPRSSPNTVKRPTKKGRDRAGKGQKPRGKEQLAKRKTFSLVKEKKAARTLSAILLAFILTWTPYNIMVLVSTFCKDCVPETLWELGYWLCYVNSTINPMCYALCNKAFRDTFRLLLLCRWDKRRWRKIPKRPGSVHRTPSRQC

[2] = target: T2, Muscarinic acetylcholine receptor M4 (Homo sapiens) (UniProt P08173); assay: Subtype selectivity and cooperativity with N-methyl Scopolamine (NMS) at Muscarinic acetylcholine receptor M4; Activity range is 1.2-3
T2 sequence (whole entry): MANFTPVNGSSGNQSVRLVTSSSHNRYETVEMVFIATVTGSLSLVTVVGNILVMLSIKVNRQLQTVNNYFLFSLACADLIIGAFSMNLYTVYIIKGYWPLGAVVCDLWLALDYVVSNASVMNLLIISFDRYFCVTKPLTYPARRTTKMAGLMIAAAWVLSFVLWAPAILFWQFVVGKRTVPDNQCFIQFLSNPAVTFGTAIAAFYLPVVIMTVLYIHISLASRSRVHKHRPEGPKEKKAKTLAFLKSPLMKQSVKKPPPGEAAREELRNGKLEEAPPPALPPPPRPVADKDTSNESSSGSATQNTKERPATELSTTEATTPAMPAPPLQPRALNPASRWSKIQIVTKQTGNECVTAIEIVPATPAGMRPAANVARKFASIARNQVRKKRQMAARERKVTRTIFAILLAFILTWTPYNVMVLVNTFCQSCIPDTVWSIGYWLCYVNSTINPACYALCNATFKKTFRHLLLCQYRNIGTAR

[3] = target: T1, Muscarinic acetylcholine receptor M1 (Homo sapiens); assay: Logarithm of affinity (log 1/M) at the free muscarinic acetylcholine receptor M1 by using semiquantitative equilibrium and off-rate assay
[4] = target: Muscarinic acetylcholine receptor M3 (Homo sapiens) (UniProt P20309); assay: Subtype selectivity and the cooperativity with N-methyl Scopolamine (NMS) at muscarinic acetylcholine receptor M3; Activity range is 0.2-0.8
Muscarinic acetylcholine receptor M3 (Homo sapiens), sequence (P20309 whole entry, looked up): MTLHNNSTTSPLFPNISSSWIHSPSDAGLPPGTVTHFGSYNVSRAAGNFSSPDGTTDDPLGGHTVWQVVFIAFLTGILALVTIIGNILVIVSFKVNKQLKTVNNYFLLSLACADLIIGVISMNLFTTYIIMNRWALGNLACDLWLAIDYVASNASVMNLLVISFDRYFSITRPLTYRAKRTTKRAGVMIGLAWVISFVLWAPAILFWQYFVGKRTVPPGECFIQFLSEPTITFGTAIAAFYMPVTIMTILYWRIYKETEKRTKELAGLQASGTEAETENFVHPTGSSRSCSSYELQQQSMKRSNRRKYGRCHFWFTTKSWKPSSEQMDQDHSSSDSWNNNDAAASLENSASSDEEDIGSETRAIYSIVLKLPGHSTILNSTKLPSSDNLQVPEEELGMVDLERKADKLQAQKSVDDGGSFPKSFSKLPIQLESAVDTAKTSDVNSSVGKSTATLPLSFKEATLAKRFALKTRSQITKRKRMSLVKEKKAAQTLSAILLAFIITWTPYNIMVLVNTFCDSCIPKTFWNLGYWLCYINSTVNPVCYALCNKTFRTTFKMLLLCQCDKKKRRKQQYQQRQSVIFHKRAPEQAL

[5] = target: T2, Muscarinic acetylcholine receptor M4 (Homo sapiens); assay: Logarithm of affinity (log 1/M) at the (N-methyl Scopolamine) NMS-liganded muscarinic acetylcholine receptor M4 by using semiquantitative equilibrium and off-rate assay
[6] = target: T2, Muscarinic acetylcholine receptor M4 (Homo sapiens); assay: Logarithm of affinity (log 1/M) at the muscarinic acetylcholine receptor M4 by using semiquantitative equilibrium and off-rate assay
[7] = target: T3, Muscarinic acetylcholine receptor M2 (Homo sapiens) (UniProt P08172); assay: Logarithm of affinity (log 1/M) at the (N-methyl Scopolamine) NMS-liganded muscarinic acetylcholine receptor M2 by using semiquantitative equilibrium and off-rate assay
T3 sequence (whole entry): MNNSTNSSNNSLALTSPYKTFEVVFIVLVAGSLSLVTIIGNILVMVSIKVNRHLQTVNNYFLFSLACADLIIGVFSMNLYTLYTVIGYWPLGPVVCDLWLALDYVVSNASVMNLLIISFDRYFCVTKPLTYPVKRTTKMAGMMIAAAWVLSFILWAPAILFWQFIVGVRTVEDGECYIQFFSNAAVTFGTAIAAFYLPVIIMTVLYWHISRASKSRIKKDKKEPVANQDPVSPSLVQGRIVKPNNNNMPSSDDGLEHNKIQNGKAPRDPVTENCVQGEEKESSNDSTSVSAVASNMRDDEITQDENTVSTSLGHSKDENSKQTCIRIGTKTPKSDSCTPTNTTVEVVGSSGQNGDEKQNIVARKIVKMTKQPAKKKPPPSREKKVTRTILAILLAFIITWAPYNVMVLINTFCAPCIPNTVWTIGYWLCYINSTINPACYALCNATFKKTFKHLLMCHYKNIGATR

[8] = target: T3, Muscarinic acetylcholine receptor M2 (Homo sapiens); assay: Logarithm of affinity (log 1/M) at the muscarinic acetylcholine receptor M2 by using semiquantitative equilibrium and off-rate assay
[9] = target: T1, Muscarinic acetylcholine receptor M1 (Homo sapiens); assay: Subtype selectivity and the cooperativity with N-methyl Scopolamine (NMS) at Muscarinic acetylcholine receptor M1; Activity range is 0.81-1.19
[10] = target: T3, Muscarinic acetylcholine receptor M2 (Homo sapiens); assay: Subtype selectivity and the cooperativity with N-methyl Scopolamine (NMS) at Muscarinic acetylcholine receptor M2; Activity range is 1.2-3
[11] = target: Muscarinic acetylcholine receptor M3 (Homo sapiens) (UniProt P20309); assay: Logarithm of affinity (log 1/M) at the (N-methyl Scopolamine) NMS-liganded muscarinic acetylcholine receptor M3 by using semiquantitative equilibrium and off-rate assay
[12] = target: Muscarinic acetylcholine receptor M3 (Homo sapiens) (UniProt P20309); assay: Logarithm of affinity (log 1/M) at the muscarinic acetylcholine receptor M3 by using semiquantitative equilibrium and off-rate assay
[13] = target: T2, Muscarinic acetylcholine receptor M4 (Homo sapiens); assay: Subtype selectivity and the cooperativity with N-methyl Scopolamine (NMS) at Muscarinic acetylcholine receptor M4; Activity range is 0.81-1.19
[14] = target: Muscarinic acetylcholine receptor M3 (Homo sapiens) (UniProt P20309); assay: Subtype selectivity and the cooperativity with N-methyl Scopolamine (NMS) at Muscarinic acetylcholine receptor M3; […]
[15] = target: T1, Muscarinic acetylcholine receptor M1 (Homo sapiens); assay: Subtype selectivity and the cooperativity with N-methyl Scopolamine (NMS) at Muscarinic acetylcholine receptor M1 Activity range is 0.2-0.8
[16] = target: T2, Muscarinic acetylcholine receptor M4 (Homo sapiens); assay: Subtype selectivity and the cooperativity with N-methyl Scopolamine (NMS) at Muscarinic acetylcholine receptor M4; Activity range is 0.2-0.8
[17] = target: T1, Muscarinic acetylcholine receptor M1 (Homo sapiens); assay: Subtype selectivity and the cooperativity with N-methyl Scopolamine (NMS) at Muscarinic acetylcholine receptor M1; Activity range is 0.2-0.8
[18] = target: T3, Muscarinic acetylcholine receptor M2 (Homo sapiens); assay: Subtype selectivity and the cooperativity with N-methyl Scopolamine (NMS) at Muscarinic acetylcholine receptor M2; Activity range is 0.2-0.8
[19] = target: T2, Muscarinic acetylcholine receptor M4 (Homo sapiens); assay: Subtype selectivity and the cooperativity with N-methyl Scopolamine (NMS) at Muscarinic acetylcholine receptor M4; Activity range is 081-1.19
[20] = target: T3, Muscarinic acetylcholine receptor M2 (Homo sapiens); assay: Subtype selectivity and the cooperativity with N-methyl Scopolamine (NMS) at Muscarinic acetylcholine receptor M2; Activity range is 0.81-1.19
[21] = target: T2, Muscarinic acetylcholine receptor M4 (Homo sapiens); assay: Subtype selectivity and the cooperativity with N-methyl Scopolamine (NMS) at Muscarinic acetylcholine receptor M4
[22] = target: Muscarinic acetylcholine receptor M3 (Homo sapiens) (UniProt P20309); assay: Subtype selectivity and the cooperativity with N-methyl Scopolamine (NMS) at Muscarinic acetylcholine receptor M3
[23] = target: T1, Muscarinic acetylcholine receptor M1 (Homo sapiens); assay: Subtype selectivity and the cooperativity with N-methyl Scopolamine (NMS) at Muscarinic acetylcholine receptor M1
[24] = target: T3, Muscarinic acetylcholine receptor M2 (Homo sapiens); assay: Subtype selectivity and the cooperativity with N-methyl Scopolamine (NMS) at Muscarinic acetylcholine receptor M2
[25] = target: T1, Muscarinic acetylcholine receptor M1 (Homo sapiens); assay: Subtype selectivity and the cooperativity with N-methyl Scopolamine (NMS) at Muscarinic acetylcholine receptor M1; Activity range is 1.81-1.19
[26] = target: T3, Muscarinic acetylcholine receptor M2 (Homo sapiens); assay: Subtype selectivity and the cooperativity with N-methyl Scopolamine (NMS) at Muscarinic acetylcholine receptor M2; activity range is 1.2-3.
[27] = target: T1, Muscarinic acetylcholine receptor M1 (Homo sapiens); assay: Subtype selectivity and the cooperativity with N-methyl Scopolamine (NMS) at Muscarinic acetylcholine receptor M1; activity value ranges from 0.81-1.19.
[28] = target: Muscarinic acetylcholine receptor M3 (Homo sapiens) (UniProt P20309); assay: Subtype selectivity and the cooperativity with N-methyl Scopolamine (NMS) at Muscarinic acetylcholine receptor M3; activity range is 0.81-1.19.

Row | SMILES | Log 1/M [1] | Log 1/M [3] | Cooperativity [4] | Log 1/M [5] | Log 1/M [6] | Log 1/M [7] | Log 1/M [8] | Log 1/M [11] | Log 1/M [12] | Cooperativity [17] | further results
1 | COc1ccc2c(c1)c1c3c(cc4c1n2C(=O)CC4)CCNC3 | 5.91 | 6.1 | 0.8 | 5.74 | 5.71 | 6.05 | 5.87 | 4.76 | 5.21 | 0.8 | Cooperativity [19]: 1.19; Cooperativity [10]: 3
2 | COc1cc2c(c(OC)c1OC)c1c3c(cc4c1n2C(=O)CC4)CNCC3 | 6.52 | 6.74 | 0.8 | 6.21 | 5.97 | 6.67 | 6.69 | 5.33 | 5.63 | 0.8 | Cooperativity [2]: 3; Cooperativity [20]: 1.19
3 | COc1ccc2c3c4c(cc5c3n(c2c1)C(=O)CC5)CCNC4 | 6.17 | 6.13 | 0.8 | 6 | 5.68 | 6.18 | 5.92 | 4.86 | 5.14 |  | Cooperativity [2]: 3; Cooperativity [9]: 1.19; Cooperativity [10]: 3
4 | O=C1CCc2cc3c(c4c5ccc(O)cc5n1c24)CNCC3 | 6.13 | 6.59 | 0.8 | 5.65 | 5.52 | 5.64 | 5.6 | 5.23 | 5.6 | 0.8 | Cooperativity [13]: 1.19; Cooperativity [20]: 1.19
5 | COC(=O)c1ccc2c(c1)c1c3c(cc4c1n2C(=O)CC4)CCNC3 | 5.85 | 6.19 | 0.8 | 5.91 | 5.84 | 6.03 | 6.14 | 4.88 | 5.55 | 0.8 | Cooperativity [13]: 1.19; Cooperativity [18]: 0.8
6 | COc1cc2c3c4c(c(COC(C)=O)c5c3n(c2cc1OC)C(=O)CC5)CNCC4 | 6.16 | 6.09 |  | 6.55 | 5.91 | 7.21 | 6.63 | 5.85 | 5.69 |  | Cooperativity [21]: > 3; Cooperativity [27]: 1.19; Cooperativity [28]: 1.19; Cooperativity [24]: > 3
7 | O=C(c1ccc2c(c1)c1c3c(cc4c1n2C(=O)CC4)CNCC3)N1CCOCC1 | 4.7 | 5.1 |  | 4.54 | 5.14 | 5.21 | 4.71 | 3.57 | 4.45 |  | Cooperativity [16]: 0.8; Cooperativity [22]: < 0.2; Cooperativity [23]: < 0.2; Cooperativity [24]: > 3

More lines, main results first:

Row | Log 1/M [1] | Log 1/M [3] | Cooperativity [4] | Log 1/M [5] | Log 1/M [6] | Log 1/M [7] | Log 1/M [8] | Log 1/M [11] | Log 1/M [12] | Cooperativity [17] | SMILES | further results
8 | 5.84 | 5.8 | 0.8 | 5.97 | 5.75 | 5.88 | 5.56 | 4.84 | 5.15 |  | CC1(C)CC(=O)n2c3cccc(O)c3c3c4c(cc1c32)CNCC4 | Cooperativity [2]: 3; Cooperativity [9]: 1.19; Cooperativity [10]: 3
9 | 5.95 | 6.5 |  | 6.26 | 6.25 | 6.7 | 6.43 | 5.52 | 5.58 |  | COc1cccc2c1c1c3c(cc4c1n2C(=O)CC4)CNCC3 | Cooperativity [13]: 1.19; Cooperativity [14]: 1.19; Cooperativity [15]: 0.8; Cooperativity [10]: 3
10 | 6.29 | 6.88 | 0.8 | 6.37 | 6.67 | 6.7 | 7.08 | 5.47 | 6.03 | 0.8 | COc1cc2c3c4c(cc5c3n(c2cc1OC)C(=O)CC5(C)C)CCNC4 | Cooperativity [16]: 0.8; Cooperativity [18]: 0.8
11 | 6.07 | 5.79 |  | 6.05 | 5.65 | 6.25 | 5.61 | 5.47 | 4.89 |  | O=C1CCc2cc3c(c4c5cc(O)ccc5n1c24)CCNC3 | Cooperativity [21]: > 3; Cooperativity [22]: > 3; Cooperativity [23]: > 3; Cooperativity [24]: > 3
12 | 6.07 | 6.04 |  | 5.9 | 5.56 | 5.81 | 5.66 | 5.12 | 5.13 |  | O=C1CCc2cc3c(c4c5cc(O)ccc5n1c24)CNCC3 | Cooperativity [25]: 1.19; Cooperativity [2]: 3; Cooperativity [14]: 1.19; Cooperativity [26]: 3
13 | 5.72 | 6.14 | 0.8 | 6.01 | 5.04 | 6.35 | 6.39 | 4.83 | 5.43 | 0.8 | COC(=O)c1ccc2c3c4c(cc5c3n(c2c1)C(=O)CC5)CNCC4 | Cooperativity [16]: 0.8; Cooperativity [18]: 0.8
14 | 5.58 | 5.66 |  | 6.14 | 5.61 | 6.54 | 5.93 | 5.23 | 5.16 |  | O=C1CCc2cc3c(c4c5cc(Cl)ccc5n1c24)CCNC3 | Cooperativity [21]: > 3; Cooperativity [14]: 1.19; Cooperativity [9]: 1.19; Cooperativity [24]: > 3
15 | 5.46 | 5.87 | 0.8 | 5.36 | 5.85 | 5.58 | 5.79 | 4.68 | 5.19 | 0.8 | N#Cc1ccc2c3c4c(cc5c3n(c2c1)C(=O)CC5)CNCC4 | Cooperativity [13]: 1.19; Cooperativity [18]: 0.8
